Key:
Jurkat = experiment: MTS proliferation assay, Jurkat; format: cell-based, human; conditions: 72 h incubation, read-out: MTS proliferation assay IC 50 Jurkat
Outline: (§1)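 A 72 h exposure to compound (final 0.3–10 μM, four levels) was followed by 3 h MTS incubation and an A492 read.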

Jily = experiment: MTS proliferation assay, Jily; format: cell-based; conditions: 72 h incubation, read-out: MTS proliferation assay IC 50 Jily
Outline: (§2)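 Proliferation is followed by MTS conversion, measured as absorbance at 492 nm. Cells are exposed for 72 h to four fixed compound concentrations (10 μM down to 0.3 μM) under 37° C, 7.5% CO2 culture conditions.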

HT1080 = experiment: MTS proliferation assay, HT1080; format: cell-based, human; conditions: HT1080, 72 h incubation; read-out: MTS proliferation assay IC 50 HT1080
Outline: as §1

HeLa = experiment: MTS proliferation assay, HeLa; format: cell-based, human; conditions: 72 h incubation, read-out: MTS proliferation assay IC 50 HeLa
Outline: as §1

MRC5 = experiment: MTS proliferation assay, MRC5; format: cell-based; conditions: MRC5, 72 h incubation; read-out: MTS proliferation assay IC 50 MRC5
Outline: as §2

[1] = tested on: adherent cells or suspension cells; experiment: Hoechst 33342 nuclear staining (fraction of apoptotic nuclei); format: cell-based; set-up: key: 0 relating to no activity; 1 relating to weak activity comprising less than 70% of the cells; score 2 relating to strong activity comprising more than 70% of the cells

| SMILES | IC50 (Jurkat) [nM] | IC50 (Jily) [nM] | IC50 (HT1080) [nM] | IC50 (HeLa) [nM] | IC50 (MRC5) [nM] | Hoechst 33342 nuclear staining score ([1]; H460, conc 0.01 μm) | Hoechst 33342 nuclear staining score ([1]; H460, conc 0.1 μm) | Hoechst 33342 nuclear staining score ([1]; H460, conc 1 μm) | Hoechst 33342 nuclear staining score ([1]; HeLa, conc 0.01 μm) | Hoechst 33342 nuclear staining score ([1]; HeLa, conc 0.1 μm) | Hoechst 33342 nuclear staining score ([1]; HeLa, conc 1 μm) | Hoechst 33342 nuclear staining score ([1]; Jily, conc 0.01 μm) | Hoechst 33342 nuclear staining score ([1]; Jily, conc 0.1 μm) | Hoechst 33342 nuclear staining score ([1]; Jily, conc 1 μm) | Hoechst 33342 nuclear staining score ([1]; Jurkat, conc 0.01 μm) | Hoechst 33342 nuclear staining score ([1]; Jurkat, conc 0.1 μm) | Hoechst 33342 nuclear staining score ([1]; Jurkat, conc 1 μm) | Hoechst 33342 nuclear staining score ([1]; MRC5, conc 0.01 μm) | Hoechst 33342 nuclear staining score ([1]; MRC5, conc 0.1 μm) | Hoechst 33342 nuclear staining score ([1]; MRC5, conc 1 μm) | other results |
| --- | --- | --- | --- | --- | --- | --- | --- | --- | --- | --- | --- | --- | --- | --- | --- | --- | --- | --- | --- | --- | --- |
| COc1cc(C(=O)Cn2c(-c3nonc3N)nc3ccccc32)ccc1OC(C)=O [Example 75] | 100 to 1000 | 100 to 1000 | 100 to 1000 | 100 to 1000 | 100 to 1000 | 0 | 0 | 2 (score 2 relating to strong activity comprising more than 70% of the cells) | 0 | 0 | 1 (1 relating to weak activity comprising less than 70% of the cells) | 0 | 0 | 2 (score 2 relating to strong activity comprising more than 70% of the cells) | 0 | 0 | 2 (score 2 relating to strong activity comprising more than 70% of the cells) | 0 | 0 | 1 (1 relating to weak activity comprising less than 70% of the cells) | Hoechst 33342 nuclear staining score ([1]; PBLs, conc 0.01 μm): 0; Hoechst 33342 nuclear staining score ([1]; PBLs, conc 0.1 μm): 0; Hoechst 33342 nuclear staining score ([1]; PBLs, conc 1 μm): 0 |
| Nc1nonc1-c1nc2ccccc2n1COc1ccc([N+](=O)[O-])cc1 [Example 98] | 100 to 1000 | 100 to 1000 | > 1000 | > 1000 | > 1000 | 0 | 0 | 0 | 0 | 0 | 0 | 0 | 0 | 2 (score 2 relating to strong activity comprising more than 70% of the cells) | 0 | 0 | 2 (score 2 relating to strong activity comprising more than 70% of the cells) | 0 | 0 | 0 | Hoechst 33342 nuclear staining score ([1]; PBLs, conc 0.01 μm): 0; Hoechst 33342 nuclear staining score ([1]; PBLs, conc 0.1 μm): 0; Hoechst 33342 nuclear staining score ([1]; PBLs, conc 1 μm): 0 |
| Nc1ccc(C(=O)Cn2c(-c3nonc3N)nc3ccccc32)cc1.O=C(O)C(=O)O [Example 62] | 10 to 100 | 10 to 100 | 10 to 100 | 100 to 1000 | 10 to 100 | 0 | 2 (score 2 relating to strong activity comprising more than 70% of the cells) | 2 (score 2 relating to strong activity comprising more than 70% of the cells) | 0 | 2 (score 2 relating to strong activity comprising more than 70% of the cells) | 2 (score 2 relating to strong activity comprising more than 70% of the cells) | 0 | 2 (score 2 relating to strong activity comprising more than 70% of the cells) | 2 (score 2 relating to strong activity comprising more than 70% of the cells) | 0 | 2 (score 2 relating to strong activity comprising more than 70% of the cells) | 2 (score 2 relating to strong activity comprising more than 70% of the cells) | 0 | 2 (score 2 relating to strong activity comprising more than 70% of the cells) | 2 (score 2 relating to strong activity comprising more than 70% of the cells) | Hoechst 33342 nuclear staining score ([1]; PBLs, conc 0.01 μm): 0; Hoechst 33342 nuclear staining score ([1]; PBLs, conc 0.1 μm): 0; Hoechst 33342 nuclear staining score ([1]; PBLs, conc 1 μm): 0 |
| Nc1nonc1-c1nc2ccccc2n1COc1ccc(Br)cc1 [Example 89] | 10 to 100 | 10 to 100 | 10 to 100 | 10 to 100 | 100 to 1000 | 0 | 2 (score 2 relating to strong activity comprising more than 70% of the cells) | 2 (score 2 relating to strong activity comprising more than 70% of the cells) | 0 | 2 (score 2 relating to strong activity comprising more than 70% of the cells) | 2 (score 2 relating to strong activity comprising more than 70% of the cells) | 0 | 2 (score 2 relating to strong activity comprising more than 70% of the cells) | 2 (score 2 relating to strong activity comprising more than 70% of the cells) | 0 | 2 (score 2 relating to strong activity comprising more than 70% of the cells) | 2 (score 2 relating to strong activity comprising more than 70% of the cells) | 0 | 2 (score 2 relating to strong activity comprising more than 70% of the cells) | 2 (score 2 relating to strong activity comprising more than 70% of the cells) | Hoechst 33342 nuclear staining score ([1]; PBLs, conc 0.01 μm): 0; Hoechst 33342 nuclear staining score ([1]; PBLs, conc 0.1 μm): 0; Hoechst 33342 nuclear staining score ([1]; PBLs, conc 1 μm): 0 |
| N#CCCNc1nonc1-c1nc2ccccc2n1CC(=O)c1ccc(Br)cc1 [Example 47] | < 10 | < 10 | 10 to 100 | 10 to 100 | 100 to 1000 | 0 | 2 (score 2 relating to strong activity comprising more than 70% of the cells) | 2 (score 2 relating to strong activity comprising more than 70% of the cells) | 0 | 2 (score 2 relating to strong activity comprising more than 70% of the cells) | 2 (score 2 relating to strong activity comprising more than 70% of the cells) | 0 | 2 (score 2 relating to strong activity comprising more than 70% of the cells) | 2 (score 2 relating to strong activity comprising more than 70% of the cells) | 2 (score 2 relating to strong activity comprising more than 70% of the cells) | 2 (score 2 relating to strong activity comprising more than 70% of the cells) | 2 (score 2 relating to strong activity comprising more than 70% of the cells) | 0 | 2 (score 2 relating to strong activity comprising more than 70% of the cells) | 2 (score 2 relating to strong activity comprising more than 70% of the cells) | Hoechst 33342 nuclear staining score ([1]; PBLs, conc 0.01 μm): 0; Hoechst 33342 nuclear staining score ([1]; PBLs, conc 0.1 μm): 0; Hoechst 33342 nuclear staining score ([1]; PBLs, conc 1 μm): 0 |
| Nc1nonc1-c1nc2ccccc2n1CC(=O)c1ccccn1 [Example 59] | 100 to 1000 | 100 to 1000 | 100 to 1000 | 100 to 1000 | 100 to 1000 | 0 | 0 | 2 (score 2 relating to strong activity comprising more than 70% of the cells) | 0 | 0 | 2 (score 2 relating to strong activity comprising more than 70% of the cells) | 0 | 0 | 2 (score 2 relating to strong activity comprising more than 70% of the cells) | 0 | 0 | 2 (score 2 relating to strong activity comprising more than 70% of the cells) | 0 | 0 | 2 (score 2 relating to strong activity comprising more than 70% of the cells) | Hoechst 33342 nuclear staining score ([1]; PBLs, conc 0.01 μm): 0; Hoechst 33342 nuclear staining score ([1]; PBLs, conc 0.1 μm): 0; Hoechst 33342 nuclear staining score ([1]; PBLs, conc 1 μm): 0 |

Source: USRE42890E1, “Furazanobenzimidazoles” (Basilea Pharmaceutica AG, priority 2003, dated 2011)
